Experimental data from patent US10174032B2, “Heterocyclic compound classes for signaling modulation” (SignalRx Pharmaceuticals, Inc., priority 2014, dated 2019).
pIC50: −log10 of the molar value.

Assays:
[1] = biological target: BRD4 (Homo sapiens, UniProt O60885); test: BRD4 inhibition assay of CAL101; type: binding; conditions: no significant BRD4 inhibition
[2] = biological target: PI3K-alpha (Homo sapiens, UniProt P42336); test: Kinase inhibition assay, P-33 labelled ATP phosphate transfer, PI3K-alpha; type: biochemical
Experimental: (§1) The assays determined the amount of radioactive phosphate transferred from P-33 labelled ATP to the substrate by the enzyme in the presence of various concentrations of the inhibitor test compounds. […] After this time period the cells were serum starved for 5 hours followed by application of the test compound. Test compound was added as a DMSO (dimethyl sulfoxide) solution such that the final DMSO concentration in the cell media was less than or equal to 0.2% by volume. After 30 minutes of exposure the growth factor stimulant, human IGF-1 (Pepro Tech, Inc., Rocky Hill, N.J., Cat.#100-11), was added in each well. […] A SpectraMax Plus spectrophotometric plate reader (Molecular Devices, Sunnydale, Calif.) was used to measure the optical density signal for pAKT at 450 nm (OD450 nm). The pAKT OD450 nm readings were normalized by total protein amount in the cell lysates determined by standard methods. Concentrations of test compounds required to inhibit IGF stimulated pAKT levels to 50% of maximum levels in PC3 cells (termed DM50 for decreased maximum 50%) were calculated by inputting the dose responses in the software package GraphPad Prism4 (GraphPad Software, Inc., San Diego, Calif.).

[3] = biological target: PI3K-beta (Homo sapiens, UniProt P42338); test: Kinase inhibition assay, P-33 labelled ATP phosphate transfer, PI3K-beta; type: biochemical
Experimental: as §1

[4] = biological target: PI3K-delta (Homo sapiens, UniProt O00329); test: Kinase inhibition assay, P-33 labelled ATP phosphate transfer, PI3K-delta; type: biochemical
Experimental: as §1

[5] = biological target: PI3K-gamma (Homo sapiens, UniProt P48736); test: Kinase inhibition assay, P-33 labelled ATP phosphate transfer, PI3K-gamma; type: biochemical
Experimental: as §1

[6] = biological target: mTOR (Homo sapiens, UniProt P42345); test: Kinase inhibition assay, P-33 labelled ATP phosphate transfer, mTOR; type: biochemical; conditions: read-out: mTOR(% Inh at 300 nM)
Experimental: as §1

[7] = biological target: PLK-1 (Homo sapiens, UniProt P53350); test: Kinase inhibition assay, P-33 labelled ATP phosphate transfer, PLK-1; type: biochemical
Experimental: as §1

[8] = tested on: pAKT serine 473 in PC3 cells; test: IGF-1 stimulated pAKT serine 473 level in PC3 cells (sandwich ELISA); type: cell-based; conditions: Homo sapiens, PC-3, 0.5 h, 30 minutes compound exposure, termed DM50 in text
Experimental: as §1

[9] = tested on: PC3 cells; test: PC3 cell proliferation (WST, 72 hours); type: cell-based; conditions: Homo sapiens, PC-3; PC3 cells, 72 hours, WST; read-out: PC3 cell proliferation(IC50 μM)
Experimental: The PC3 cell proliferation data in column 26 of Table 5 was obtained as follows: PC3 cells were obtained from the American Type Culture Collection (ATCC, Manassas, Va., Cat.#CRL-1435). Two thousand cells from the prostate cancer line PC3 were placed in 50 μL of complete RPMI 1640 media (Invitrogen, Carlsbad, Calif., Cat.#22400-105) with 10% fetal bovine serum, (Invitrogen, Carlsbad, Calif., Cat.#10438-026) into each well of 96-well cell culture plates in a hexaplicate sampling pattern. A 50 μL aliquot of test compound (prepared from stock test compounds in DMSO diluted into media) was added to the appropriate well such that the final concentrations of test compound were 200, 40, 8, 1.6, 0.32, 0.064, 0.0128, 0.00256, and 0 μM and the final DMSO concentration was less than or equal to 0.2% . The plates were incubated for 72 hours 37° C. in an atmosphere of 5% CO2. At the end of this time a 10 μL aliquot of WST solution (Roche Applied Science, Mannheim, Germany) was added into each of the wells. Cells were exposed to the WST solution for 4 hours. A SpectraMax Plus spectrophotometric plate reader (Molecular Devices, Sunnydale, Calif.) was then used to measure the optical density at 450 nm (OD450 nm). Sigmoidal curves were drawn for the dose responses and IC50 values were calculated using the software package GraphPad Prism4 (GraphPad Software, Inc., San Diego, Calif.).

[10] = biological target: BET protein BRD4-1 (Homo sapiens, UniProt O60885); conditions: S W J Ember 2014; cited from earlier work

Chain of PI3K-gamma (P48736 whole entry, species assumed): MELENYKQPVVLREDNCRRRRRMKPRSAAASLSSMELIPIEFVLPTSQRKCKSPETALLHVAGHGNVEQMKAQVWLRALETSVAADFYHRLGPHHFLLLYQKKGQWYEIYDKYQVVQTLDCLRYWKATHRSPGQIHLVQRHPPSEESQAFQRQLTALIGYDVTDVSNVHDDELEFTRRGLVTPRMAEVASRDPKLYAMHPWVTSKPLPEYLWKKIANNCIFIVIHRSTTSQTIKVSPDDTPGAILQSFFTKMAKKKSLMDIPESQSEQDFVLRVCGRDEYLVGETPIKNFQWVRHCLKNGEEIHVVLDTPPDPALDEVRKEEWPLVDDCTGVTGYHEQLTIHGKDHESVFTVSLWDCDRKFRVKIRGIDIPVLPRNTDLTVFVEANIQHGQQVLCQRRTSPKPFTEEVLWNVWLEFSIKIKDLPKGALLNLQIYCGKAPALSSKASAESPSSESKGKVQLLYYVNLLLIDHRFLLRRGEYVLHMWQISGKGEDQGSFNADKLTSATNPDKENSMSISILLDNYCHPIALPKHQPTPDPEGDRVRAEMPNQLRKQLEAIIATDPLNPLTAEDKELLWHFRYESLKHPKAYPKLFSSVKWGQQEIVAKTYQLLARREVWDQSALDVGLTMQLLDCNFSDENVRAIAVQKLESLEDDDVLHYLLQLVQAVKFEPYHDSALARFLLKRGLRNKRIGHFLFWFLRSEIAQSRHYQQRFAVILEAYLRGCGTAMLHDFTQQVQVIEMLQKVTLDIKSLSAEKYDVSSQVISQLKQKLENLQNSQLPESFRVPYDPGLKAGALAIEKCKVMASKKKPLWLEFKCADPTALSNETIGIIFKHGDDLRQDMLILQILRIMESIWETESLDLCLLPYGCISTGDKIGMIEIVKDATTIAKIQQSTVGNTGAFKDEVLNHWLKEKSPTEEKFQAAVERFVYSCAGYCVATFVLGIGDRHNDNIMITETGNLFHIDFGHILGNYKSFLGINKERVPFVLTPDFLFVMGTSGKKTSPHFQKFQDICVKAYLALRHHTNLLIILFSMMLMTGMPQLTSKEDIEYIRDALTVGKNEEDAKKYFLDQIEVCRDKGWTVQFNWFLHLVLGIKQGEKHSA
Chain of PLK-1 (P53350 whole entry, species assumed): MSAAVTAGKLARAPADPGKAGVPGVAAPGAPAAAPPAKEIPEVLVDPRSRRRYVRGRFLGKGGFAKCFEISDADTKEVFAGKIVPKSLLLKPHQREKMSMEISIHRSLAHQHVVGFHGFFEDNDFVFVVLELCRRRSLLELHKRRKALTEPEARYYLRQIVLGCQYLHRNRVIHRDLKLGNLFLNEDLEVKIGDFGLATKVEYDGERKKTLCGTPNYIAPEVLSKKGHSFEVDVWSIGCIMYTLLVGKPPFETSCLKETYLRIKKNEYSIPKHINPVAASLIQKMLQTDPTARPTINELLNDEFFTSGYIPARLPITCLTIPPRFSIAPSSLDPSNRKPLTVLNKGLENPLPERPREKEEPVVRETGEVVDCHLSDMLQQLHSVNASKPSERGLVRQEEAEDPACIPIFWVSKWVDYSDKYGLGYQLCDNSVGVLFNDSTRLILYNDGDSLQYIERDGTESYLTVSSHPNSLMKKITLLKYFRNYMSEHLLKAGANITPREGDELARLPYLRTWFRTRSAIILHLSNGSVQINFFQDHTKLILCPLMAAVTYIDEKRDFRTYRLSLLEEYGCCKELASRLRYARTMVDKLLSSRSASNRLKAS
Chain of PI3K-alpha (P42336 whole entry, species assumed): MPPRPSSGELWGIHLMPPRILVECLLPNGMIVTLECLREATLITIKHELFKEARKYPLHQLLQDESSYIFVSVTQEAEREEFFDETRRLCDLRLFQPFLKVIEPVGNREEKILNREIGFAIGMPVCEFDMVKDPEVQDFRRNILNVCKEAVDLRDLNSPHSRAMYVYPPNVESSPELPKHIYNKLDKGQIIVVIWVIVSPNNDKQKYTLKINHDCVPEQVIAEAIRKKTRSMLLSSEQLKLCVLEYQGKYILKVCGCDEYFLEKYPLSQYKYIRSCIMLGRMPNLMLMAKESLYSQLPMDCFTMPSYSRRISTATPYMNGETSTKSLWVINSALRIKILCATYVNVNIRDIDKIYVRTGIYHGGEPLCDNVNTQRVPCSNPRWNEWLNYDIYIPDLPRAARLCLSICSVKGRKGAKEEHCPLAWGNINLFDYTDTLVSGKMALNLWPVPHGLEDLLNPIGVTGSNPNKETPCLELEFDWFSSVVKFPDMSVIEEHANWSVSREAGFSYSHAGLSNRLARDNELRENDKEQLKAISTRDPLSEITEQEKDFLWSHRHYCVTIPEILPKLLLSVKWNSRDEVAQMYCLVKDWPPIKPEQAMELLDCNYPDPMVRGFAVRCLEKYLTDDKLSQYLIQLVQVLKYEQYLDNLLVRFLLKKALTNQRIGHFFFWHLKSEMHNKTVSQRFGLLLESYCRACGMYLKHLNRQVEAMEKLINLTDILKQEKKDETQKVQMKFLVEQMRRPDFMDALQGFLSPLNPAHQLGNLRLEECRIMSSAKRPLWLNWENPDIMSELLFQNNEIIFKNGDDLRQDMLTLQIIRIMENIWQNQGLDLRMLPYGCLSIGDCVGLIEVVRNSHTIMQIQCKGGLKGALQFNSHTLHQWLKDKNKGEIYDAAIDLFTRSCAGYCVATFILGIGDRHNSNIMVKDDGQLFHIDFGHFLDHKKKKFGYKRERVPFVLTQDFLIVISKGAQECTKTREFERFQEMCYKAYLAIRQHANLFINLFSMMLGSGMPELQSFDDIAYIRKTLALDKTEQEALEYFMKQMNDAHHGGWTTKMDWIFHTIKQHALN
Chain of PI3K-alpha (P27986 whole entry partner, species assumed): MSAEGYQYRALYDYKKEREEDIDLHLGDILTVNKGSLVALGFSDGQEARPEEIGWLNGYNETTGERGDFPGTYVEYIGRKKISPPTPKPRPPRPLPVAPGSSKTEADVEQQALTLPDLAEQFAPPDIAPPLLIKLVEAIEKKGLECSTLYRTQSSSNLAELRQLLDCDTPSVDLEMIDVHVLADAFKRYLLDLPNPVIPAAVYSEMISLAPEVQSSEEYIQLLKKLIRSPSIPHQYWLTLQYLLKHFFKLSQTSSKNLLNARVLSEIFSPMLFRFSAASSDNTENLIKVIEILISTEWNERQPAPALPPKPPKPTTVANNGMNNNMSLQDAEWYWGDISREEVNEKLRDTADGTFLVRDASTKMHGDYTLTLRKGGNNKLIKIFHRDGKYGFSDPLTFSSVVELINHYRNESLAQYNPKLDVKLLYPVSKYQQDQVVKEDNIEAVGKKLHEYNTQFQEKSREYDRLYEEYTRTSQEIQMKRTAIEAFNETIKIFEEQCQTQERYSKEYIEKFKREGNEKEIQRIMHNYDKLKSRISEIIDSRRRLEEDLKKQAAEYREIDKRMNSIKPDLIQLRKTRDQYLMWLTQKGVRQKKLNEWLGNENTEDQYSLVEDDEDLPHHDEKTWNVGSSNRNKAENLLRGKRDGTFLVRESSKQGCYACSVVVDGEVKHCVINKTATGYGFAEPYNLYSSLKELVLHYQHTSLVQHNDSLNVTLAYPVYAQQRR
Chain of PI3K-delta (O00329 whole entry, species assumed): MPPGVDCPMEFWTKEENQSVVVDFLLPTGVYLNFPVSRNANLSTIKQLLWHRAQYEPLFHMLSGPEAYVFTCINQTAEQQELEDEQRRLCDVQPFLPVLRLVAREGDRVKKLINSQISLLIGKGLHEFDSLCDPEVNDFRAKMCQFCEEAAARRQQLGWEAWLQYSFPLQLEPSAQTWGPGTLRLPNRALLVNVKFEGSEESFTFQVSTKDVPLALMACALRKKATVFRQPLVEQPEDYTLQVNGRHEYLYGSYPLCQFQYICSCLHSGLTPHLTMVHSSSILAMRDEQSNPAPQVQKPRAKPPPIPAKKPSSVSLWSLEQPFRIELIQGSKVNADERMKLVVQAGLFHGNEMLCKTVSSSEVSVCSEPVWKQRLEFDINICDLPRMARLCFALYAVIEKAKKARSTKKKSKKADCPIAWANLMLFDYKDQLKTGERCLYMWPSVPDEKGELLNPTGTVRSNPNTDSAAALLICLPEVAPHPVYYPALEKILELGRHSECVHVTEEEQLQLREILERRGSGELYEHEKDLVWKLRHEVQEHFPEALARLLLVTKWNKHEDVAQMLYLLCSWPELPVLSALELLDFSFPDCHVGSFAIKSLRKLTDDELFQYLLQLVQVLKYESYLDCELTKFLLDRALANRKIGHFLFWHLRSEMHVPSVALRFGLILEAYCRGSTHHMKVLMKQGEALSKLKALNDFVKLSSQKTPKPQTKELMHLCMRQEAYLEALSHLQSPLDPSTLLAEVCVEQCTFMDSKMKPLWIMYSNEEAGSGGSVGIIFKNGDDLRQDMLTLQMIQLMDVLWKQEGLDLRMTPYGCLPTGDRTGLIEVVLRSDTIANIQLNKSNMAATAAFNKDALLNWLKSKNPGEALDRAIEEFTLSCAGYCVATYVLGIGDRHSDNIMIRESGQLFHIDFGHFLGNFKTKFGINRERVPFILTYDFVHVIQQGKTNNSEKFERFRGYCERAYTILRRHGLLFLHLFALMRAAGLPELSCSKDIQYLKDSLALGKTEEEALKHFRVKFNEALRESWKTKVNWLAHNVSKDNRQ
Chain of PI3K-delta (P27986 whole entry partner, species assumed): as the sequence (P27986 whole entry partner, species assumed) above

With `CC[C@H](Nc1ncnc2[nH]cnc12)c1nc2cccc(F)c2c(=O)n1-c1ccccc1` [CAL101] as the molecule, how does the pIC50 [1] read?
The pIC50 was less than 4.30.

Which results are given for `O=c1nc(N2CCOCC2)oc2c(-c3ccccc3)csc12` [Compound 3, 2-morpholino-7-phenyl-4H-thieno[2,3-e][1,3]oxazin-4-one]?
IC50 [2]: 1.4 µM; pIC50 [3]: 5.00; pIC50 [4]: 5.82; pIC50 [5]: 5.26; inhibition at 0.3 µM [6]: 4%; IC50 [7]: 2.3 µM; IC50 [8]: 11 µM; IC50 [9]: 28 µM

For `Cc1cnc(Nc2ccc(N3CCN(C)CC3)cc2)nc1Nc1cccc(S(=O)(=O)NC(C)(C)C)c1` [TG101209], which “inhibition of BET protein BRD4-1” value [10] is on record?
The value was “potently inhibit”.
